Target: A2aR (hA2aR) (Homo sapiens, UniProt P29274)
Test: flow cytometry, fluorescent agonist equilibrium binding to HEK293-A2aR cells
Format: cell-based

A2aR (hA2aR), sequence (P29274 whole entry): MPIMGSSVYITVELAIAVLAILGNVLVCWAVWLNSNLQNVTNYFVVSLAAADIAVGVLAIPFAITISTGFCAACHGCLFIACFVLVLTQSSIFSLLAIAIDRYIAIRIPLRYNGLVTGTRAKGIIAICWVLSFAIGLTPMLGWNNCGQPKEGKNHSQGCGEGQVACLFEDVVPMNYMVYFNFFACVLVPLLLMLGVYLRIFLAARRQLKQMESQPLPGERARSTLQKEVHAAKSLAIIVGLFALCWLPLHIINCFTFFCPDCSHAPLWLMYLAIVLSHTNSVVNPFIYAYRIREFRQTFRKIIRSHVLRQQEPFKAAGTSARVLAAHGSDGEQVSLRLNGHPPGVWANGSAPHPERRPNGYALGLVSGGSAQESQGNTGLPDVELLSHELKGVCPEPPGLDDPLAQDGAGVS

CCNC(=O)[C@H]1O[C@@H](n2cnc3c(N)nc(NCCc4ccc(CCC(=O)NCCNC(=S)Nc5ccc6c(c5)C(=O)OC65c6ccc(O)cc6Oc6cc(O)ccc65)cc4)nc32)[C@H](O)[C@@H]1O [FITC-APEC]
equilibrium ligand binding: equilibrium ligand binding of the fluorescent agonist APEC-FITC was unchanged following cholesterol depletion
